Values after ≈ are worked out from the molar mass of the structure shown. Values belong to the molecule of their own block, whether it stands above or below them.
Legend:
[1] = Dynamic vapor sorption/desorption (DVS); type: physicochemical
Procedure: Dynamic vapor sorption/desorption (DVS) data were collected on a VTI SGA-100 Vapor Sorption Analyzer. […] Samples were not dried prior to analysis. Equilibrium criteria used for analysis were less than 0.0100% weight change in 5 minutes, with a maximum equilibration time of 3 hours if the weight criterion was not met. Data were not corrected for the initial moisture content of the samples. Sodium chloride and polyvinylpyrrolidine (PVP) were used as calibration standards.

[2] = Solubility of salts in water by HPLC at 23° C.; type: physicochemical; details: for Adjusted pH: pH after adjustment to approximately 3.5; for Native pH: supernatant of saturated solution in water
Procedure: In another set of experiments, solubility of various radezolid salts was determined by HPLC. Approximately 1 mL of saturated solution (with excess of solid in solution) of each salt was prepared in water. The mixture was further mixed overnight on a slurry wheel then centrifuged on a desktop centrifuge at maximum speed for approximately 5 min. The supernatant was collected, and pH was measured. Solubility was determined at the native pH. Then the pH was adjusted to approximately 3.5 with sodium hydroxide solution or an acid solution in which salt was generated. The supernatant was filtered through a 0.2 µm nylon syringe filter and diluted into 0.1% formic acid solution immediately after filtration for HPLC. All HPLC analyses were performed using an Agilent 1100 series liquid chromatograph equipped with a diode array detector, degasser, quaternary pump, and an autosampler. […] The column temperature was set to 30° C., and the detector wavelength was 270 nm with a bandwidth of 8 nm and a reference wavelength of 360 nm. The mobile phase A was 0.1% formic acid in water (HPLC grade), mobile phase B was 0.1% formic acid in methanol (HPLC grade). […] The injection volume was 5 μL.

[3] = system: G. vaginalis ATCC 14018; test: Agar dilution MIC (CLSI reference method); type: cell-based; details: G. vaginalis (isolates of Table 1)
[4] = Long-term rat safety study (body weight, survival, clinical pathology, exposure)
[5] = Granuloma pouch: bacterial burden and radezolid levels in pouch and plasma; type: in vivo; details: FIGS. 3-4
[6] = Solubility of free base in oily excipients; type: physicochemical; details: 19-21° C.
Procedure: The solubility of radezolid free base in various oily excipients was measured at 19-21° C. by adding a known amount of the free base to a known amount of the oily excipients. Increasing amounts of the free base were added if the oily excipient was not saturated.
In some embodiments, facial acne formulations are disclosed herein. In some embodiments, the amount of oil in an emulsion base (cream or lotion) is between 10-15% w/w. In further embodiments, the amount of oil in an emulsion base (cream or lotion) is less than 10%. To obtain a 1% w/w formulation of the free base dissolved in a dispersed oil phase, its solubility in that oil phase needs to be approximately 10% w/w. Radezolid free base was screened in oily excipients at a level of approximately 5% w/w. If an oily excipient could not dissolve at least 5% w/w, it would be unlikely to contribute to higher solubility in other oily excipients (i.e. low potential for synergy).

[7] = in vivo
[8] = system: P. granulosum ATCC 25746; test: Broth microdilution MIC (CLSI); type: cell-based
[9] = system: P. acnes ATCC 11828; test: Agar dilution MIC (CLSI reference method); type: cell-based; details: P. acnes (isolates of Table 1)
[10] = system: G. vaginalis ATCC 49145; test: Broth microdilution MIC (CLSI); type: cell-based; details: G. vaginalis 49145
[11] = system: ten isolates (ATCC); type: cell-based; details: for all organisms
[12] = system: S. aureus ATCC 29213; test: Agar dilution MIC (CLSI reference method); type: cell-based; details: Staphylococcus aureus, ATCC29213
[13] = system: F. magna ATCC 15794; test: Agar dilution MIC (CLSI reference method); type: cell-based
[14] = system: P. granulosum ATCC 25746; test: Agar dilution MIC (CLSI reference method); type: cell-based
[15] = system: mammalian cells (e.g., defense cells, macrophages, lung cells, and non-phagocytic cells); details: cited from earlier work
[16] = system: B. thetaiotaomicron ATCC 29741; test: microbe, parasite or virus in culture; type: cell-based; details: for MIC: Bacteroides thetaiotaomicron, ATCC29741, read-out: MIC, Broth
[17] = Solubility of salts in water, visual/microscopic
Procedure: Approximately 2-3.5 mg of each salt was weighed into a glass vessel at ambient temperature. HPLC grade water, 200 μL, was added to each and stirred with a stir bar for two hours. Samples were inspected for solubility both visually and/or microscopically using a Carl Zeiss SV8 stereomicroscope.

[18] = system: S. aureus ATCC 29213; test: Broth microdilution MIC (CLSI); type: cell-based
[19] = physchem; type: physicochemical; details: pH 5.5, aqueous buffer
[20] = Solubility of salts in approved topical solvents; type: physicochemical
Procedure: The solubility of radezolid HCl salt in various approved topical solvents was measured at 19-21° C. by adding a known amount of the radezolid HCl salt to a known amount of the solvent. Increasing amounts of the radezolid HCl salt were added if the solvent was not saturated.
The solubility of radezolid esylate and mesylate salts in various approved topical solvents was measured at 19-21° C. by adding a known amount of the radezolid salts to a known amount of the solvent. Increasing amounts of the radezolid salts were added if the solvent was not saturated.

[21] = system: Staphylococcus aureus 01A1095, Mac-R; test: MIC against ribosome-based resistance phenotypes; type: cell-based; details: read-out: Minimum Inhibitory Concentration (MIC)

- DVS Desorption: weight loss from 95 to 5% RH [1]: Desorption: 2.388% weight loss
- DVS Sorption: weight loss upon equilibration at 5% RH [1]: Sorption: 0.017% weight loss
- Adjusted pH [2]: 3.6
- Native pH [2]: 2.0
- Solubility at Native pH ([2]; water, 23° C., HPLC): >133.2 mg/mL
- Solubility at Adjusted pH ([2]; water, 23° C., HPLC, pH adjusted to approximately 3.5): >116.9 mg/mL
Molecule: O=S(=O)(O)CCS(=O)(=O)O [Ethane-1,2-disulfonate]

Molecule: CC(=O)NC[C@H]1CN(c2ccc(-c3ccc(CNCc4cnn[nH]4)cc3)c(F)c2)C(=O)O1 [Radezolid, N-[3-(2-Fluoro-4′-{[(1H-[1,2,3]triazol-4-ylmethyl)-amino]-methyl}-biphenyl-4-yl)-2-oxo-oxazolidin-5-(S)-ylmethyl]-acetamide]
- Agar dilution MIC more potent than linezolid [3]: 8 fold
- Safety margin (Rat NOAEL AUC/Human efficacious AUC) ([4]; rat 200 mg/kg Day 29 vs human 300 mg): 30.8x
- radezolid levels in granuloma pouch versus plasma over time [5]: remain high in granuloma pouch even as they decline in the plasma
- Solubility ([6]; Benzyl benzoate (BB)): <1.5 % w/w
- Solubility ([6]; Cyclomethicone): <0.75 % w/w
- Solubility ([6]; Diisopropyl adipate (DIA)): <1.5 % w/w
- Solubility ([6]; Mineral oil): <1 % w/w
- Solubility ([6]; Oleic acid): <0.75 % w/w
- survival ([7]; both, rat): 100%
- safety in long-term rat studies, overall [7]: good safety
- changes in hematology, coagulation, clinical chemistry, or urinalysis ([7]; rat): No test article-related changes were observed
- Broth microdilution: more active than linezolid [8]: 8 fold
- Agar dilution MIC more potent than linezolid [9]: 4 fold
- Broth microdilution: more active than linezolid [10]: 8 fold
- agar dilution MICs, range over organisms [11]: 0.06 to 1 µg/mL
- MIC [12]: 1 mg/L (≈ 2.28 µM)
- Agar dilution MIC more potent than linezolid [13]: 4 fold
- Agar dilution MIC more potent than linezolid [14]: 8 fold
- accumulation in mammalian cells, greater extent than linezolid [15]: 17 fold
- share accumulating in the cytosol of cells [15]: Approximately 60%
- share accumulating in the lysosome [15]: approximately 40%

Molecule: CC[C@H]1OC(=O)[C@H](C)[C@@H](O[C@H]2C[C@@](C)(OC)[C@@H](O)[C@H](C)O2)[C@H](C)[C@@H](O[C@@H]2O[C@H](C)C[C@H](N(C)C)[C@H]2O)[C@](C)(O)C[C@@H](C)C(=O)[C@H](C)[C@@H](O)[C@]1(C)O [ERY, erythromycin]
- MIC [16]: 16 mg/L (≈ 21.8 µM)

- Solubility ([17]; HPLC grade water, ambient temperature): 2.6 mg/mL
Molecule: Fumarate

Molecule: CN(C)[C@@H]1C(O)=C(C(N)=O)C(=O)[C@@]2(O)C(O)=C3C(=O)c4c(O)cccc4[C@@](C)(O)[C@H]3C[C@@H]12 [TET, tetracycline]
- MIC [16]: 8 mg/L (≈ 18 µM)

Molecule: C[C@H]1c2cccc(O)c2C(=O)C2=C(O)[C@]3(O)C(=O)C(C(N)=O)=C(O)[C@@H](N(C)C)[C@@H]3[C@@H](O)[C@@H]21 [DOX, doxycycline]
- MIC more potent than radezolid ([16]; B. thetaiotaomicron): 4 fold
- MIC [16]: 2 mg/L (≈ 4.5 µM)
- MIC lower than radezolid [18]: 4 fold

- Solubility [19]: > 0.1 mg/mL
- DVS Desorption: weight loss from 95 to 5% RH [1]: Desorption: 0.069% weight loss
- DVS Sorption: weight gain from 5 to 95% RH [1]: 0.064% weight gain from 5 to
- DVS Sorption: weight gain upon equilibration at 5% RH [1]: Sorption: 0.03% weight gain
- Solubility ([2]; pH 4.6, thermodynamic from solid, water, 23° C., HPLC, read-out: Solubility at Native pH): 1.7 mg/mL
- Adjusted pH [2]: 3.5
- Native pH [2]: 4.6
- Solubility ([20]; 50% Ethanol/50% phosphate buffer (pH = 7.4), 19-21° C.): <0.2 % w/w
- Solubility ([20]; 50% Ethanol/50% water, 19-21° C.): <0.6 % w/w
- Solubility ([20]; Diethylene glycol monoethyl ether (Transcutol), 19-21° C.): <0.2 % w/w
- Solubility ([20]; Ethanol, 19-21° C.): <0.2 % w/w
- Solubility ([20]; Glycerin, 19-21° C.): <0.2 % w/w
- Solubility ([20]; Hexylene glycol, 19-21° C.): <0.2 % w/w
- Solubility ([20]; PEG 300, 19-21° C.): <0.2 % w/w
- Solubility ([20]; Phosphate buffer (pH = 7.4), 19-21° C.): <0.2 % w/w
- Solubility ([20]; Propylene glycol, 19-21° C.): <0.2 % w/w
Molecule: CC(=O)NC[C@H]1CN(c2ccc(-c3ccc(CNCc4c[nH]nn4)cc3)c(F)c2)C(=O)O1.Cl [Hydrochloride, (5S)—N-[3-(2-Fluoro-4′-{[(1H-[1,2,3]triazol-4-ylmethyl)-amino]-methyl}-biphenyl-4-yl)-2-oxo-oxazolidin-5-ylmethyl]-acetamide Chloride]

- MIC [12]: 0.25 mg/L (≈ 0.588 µM)
- MIC lower than radezolid [18]: 8 fold
Molecule: CCC[C@@H]1C[C@@H](C(=O)N[C@@H]([C@H]2O[C@H](SC)[C@H](O)[C@@H](O)[C@H]2O)[C@H](C)Cl)N(C)C1 [Clindamycin, clindamycin]

Molecule: CC(=O)NC[C@H]1CN(c2ccc(N3CCOCC3)c(F)c2)C(=O)O1 [Linezolid, linezolid, reference compound]
- hematology at unscheduled euthanization ([4]; rat, 100 mg/kg/day, day 75): decreased red cell mass, absolute reticulocyte and neutrophil counts
- bone marrow cellularity ([7]; rat, 100 mg/kg/day): decreased cellularity of sternal and femoral bone marrow
- MIC [12]: 2 mg/L (≈ 5.93 µM)

Molecule: O=C(O)c1ccccc1O [Salicylate]
- Solubility [17]: <0.03 mg/mL

Molecule: Cc1ncc([N+](=O)[O-])n1CCO [MET, metronidazole]
- MIC [16]: 4 mg/L (≈ 23.4 µM)

Molecule: CC[C@H]1OC(=O)[C@H](C)[C@@H](O[C@H]2C[C@@](C)(OC)[C@@H](O)[C@H](C)O2)[C@H](C)[C@@H](O[C@@H]2O[C@H](C)C[C@H](N(C)C)[C@H]2O)[C@](C)(O)C[C@@H](C)CN(C)[C@H](C)[C@@H](O)[C@]1(C)O [Azithromycin, azithromycin]
- MIC [21]: 128 mg/L (≈ 171 µM)

- Solubility [17]: 1.1 mg/mL
Molecule: Phosphate

— US20190358206A1, “TOPICAL FORMULATIONS OF BIARYL HETEROCYCLIC COMPOUNDS AND METHODS OF USE THEREOF” (Melinta Subsidiary Corp., priority 2016, published 2019)
